In patent publication US20090004185A1, “AMINO-SUBSTITUTED QUINAZOLINE DERIVATIVES AS INHIBITORS OF BETA-CATENIN/TCF-4 PATHWAY AND CANCER TREATMENT AGENTS” (WYETH, priority 2007, published 2009) one finds IC50 data, which are given here for 17 compounds.

In one test the test system is β-catenin/Tcf-4. The test is described as follows: cells. It counts as cell-based. Particulars: 24 hours of incubation with compound, ratio Firefly/Renilla luciferase. From the text:
Background cell line: SW480 colorectal carcinoma DNA constructs:
1) Tcf-4-Luc: Tcf-4 binding sites driving Firefly Luciferase in the pGL3 vector—to measure the activity of β-catenin/Tcf-4;
(§1) 2) SV40-Luc: SV40 binding site driving Firefly Luciferase in the pGL3 vector—as a control for non-specific inhibitors; and
(§2) 3) SV40-R-Luc: SV40 binding site driving Renilla Luciferase in the pGL3 vector—as an internal control for cell number and toxicity.
This screen uses 3 cell lines derived from SW480 and selected to contain the above luciferase reporters integrated into their chromosomes as follows: […]
(§3) Cells: Tcf22C11 and SV5A8 were grown in the presence of 500 μg/ml G418 and Tcf 33.13 was grown in the presence of 500 μg/ml G418+125 μg/ml Zeocin to maintain the integrated reporters. The cells were trypsinized and plated at 1×10^4 cells/well in opaque 96 well plates.
The compounds were diluted as follows: The compounds were stored frozen in dimethyl sulfoxide (DMSO) at […]. Compounds were initially titrated in DMSO to make a 1000×DMSO stock solution. Compounds were then diluted 1:25 into media/DMSO (DMEM+10% FBS+9% DMSO). Using the Biomek Multimek, the diluted compounds were mixed well and immediately added to the plated cells in a 1:40 dilution. The final concentration of DMSO in the assay plates was 0.316% DMSO.
(§4) Assay Readout: The luciferase signal was detected using a luciferase detection kit from Promega. Until December 2003, Promega's Dual-Luciferase® Reporter (DLR™) Assay System was used to detect luciferase activity. Briefly, after 24 hours of incubation with compound, culture media was removed by aspiration and 20 ul of passive lysis buffer (Promega) per well was added. The plates were shaken for 15 min. Firefly substrate was then added and the resulting luminescence was immediately read on a CCD camera imaging device or a luminometer. After quantifying the firefly luminescence, the reaction was quenched, and the Renilla luciferase reaction was initiated simultaneously by adding Stop & Glo® Reagent to the same sample. Renilla luciferase was then quantified using the CCD camera or luminometer.
Promega's Dual-Glo™ Luciferase Assay System can be used for luciferase detection. […] Briefly, after 24 hours of incubation with compound, culture media was removed by aspiration and 75 ul of fresh medium was added. Add 75 ul of Dual-Glo Luciferase Reagent (Promega) to each well and mix by shaking for 10 minutes on a plate shaker. Then, measure the firefly luminescence on a CCD camera imaging device or a luminometer. After quantifying the firefly luminescence, add 75 ul of Dual-Glo Stop & Glo Reagent (Promega) to each well and mix for 10 minutes. Renilla luciferase was then quantified using the CCD camera or luminometer.
(§5) This assay was meant to confirm primary leads and determine IC50s. Compounds were tested at titrated dilutions. The raw data for this assay was reported in protocol 2463-B. Protocol 2463-C contains the IC50 calculations based on the raw data. The data calculations were done as follows:
(§6) The data was expressed as % of control for both Firefly and Renilla Luciferase. The ratio of FF/Renilla (F/R) was then calculated and averaged between duplicate plates. The data was then plotted using LSW Data Analysis in Microsoft Excel. IC50s were determined by plotting the data in the LSW Data Analysis program using model 33. The IC50s (nM) for all three cell lines were reported.

A further test has as its system SV40-Luc. Description: SV40-Luc control luciferase reporter assay, SV 5A8 cell line (SV40-Luc and SV40-R-Luc), control for non-specific inhibitors. To be noted: SV 5A8 cells derived from SW480, 24 hours of incubation with compound, ratio Firefly/Renilla luciferase. The format is cell-based, human.
Excerpt: Background cell line: SW480 colorectal carcinoma DNA constructs: […]
as §1, §2
This screen uses 3 cell lines derived from SW480 and selected to contain the above luciferase reporters integrated into their chromosomes as follows:
SV 5A8—SV40-Luc and SV40-R-Luc
as §3
Compounds: 20-24 hours after cell plating, compounds were added at titrated concentrations between […]. The compounds were diluted as follows: The compounds were stored frozen in dimethyl sulfoxide (DMSO) at […]. Compounds were initially titrated in DMSO to make a 1000×DMSO stock solution. Compounds were then diluted 1:25 into media/DMSO (DMEM+10% FBS+9% DMSO). Using the Biomek Multimek, the diluted compounds were mixed well and immediately added to the plated cells in a 1:40 dilution. The final concentration of DMSO in the assay plates was 0.316% DMSO.
as §4
Promega's Dual-Glo™ Luciferase Assay System can be used for luciferase detection. It was similar to the DLR Assay, however, unlike the DLR which has to be read immediately due to decaying signal, the signal in the Dual-Glo™ Luciferase Assay was stable for up to 2 hours. Briefly, after 24 hours of incubation with compound, culture media was removed by aspiration and 75 ul of fresh medium was added. Add 75 ul of Dual-Glo Luciferase Reagent (Promega) to each well and mix by shaking for 10 minutes on a plate shaker. Then, measure the firefly luminescence on a CCD camera imaging device or a luminometer. After quantifying the firefly luminescence, add 75 ul of Dual-Glo Stop & Glo Reagent (Promega) to each well and mix for 10 minutes. Renilla luciferase was then quantified using the CCD camera or luminometer.
as §5, §6

The mark [1] stands for this setting: Homo sapiens, SW480, 24 h, Tcf 33.13 cells derived from SW480.
The mark [2] stands for this setting: Homo sapiens, Tcf22C11, 24 h, Tcf 22C11 cells derived from SW480.

`Cc1ccc(CN2CCC(C(=O)Nc3ccc(CNc4nc(N(C)C)nc5cc(C)ccc45)cc3)CC2)cc1` [Example 247, N-[4-({[2-(dimethylamino)-7-methylquinazolin-4-yl]amino}methyl)phenyl]-1-(4-methylbenzyl)piperidine-4-carboxamide]: the IC50 with β-catenin/Tcf-4 (setting [1]) is 467 nM; with β-catenin/Tcf-4 (setting [2]), 539 nM; with SV40-Luc (Homo sapiens, SV5A8, 24 h) it was above 4200 nM.
On to `CN(C)c1nc(NCc2ccc(C(=O)Nc3ccc(F)cc3)cc2)c2cc(/C=C/C(C)(C)C)ccc2n1` [Example 176], for which the results for the IC50 with β-catenin/Tcf-4 (Tcf 22C11 cells derived from SW480), in the test on β-catenin/Tcf-4 (Tcf 33.13 cells derived from SW480) and with SV40-Luc were 556 nM, 425 nM and above 4680 nM, respectively.
Consider `Cc1ccc2c(NCc3ccc(NC(=O)C4CCN(Cc5ccccc5)CC4)cc3)nc(N3CCC3)nc2c1` [Example 134, N-(4-{[(2-azetidin-1-yl-7-methylquinazolin-4-yl)amino]methyl}phenyl)-1-benzylpiperidine-4-carboxamide], for which the half-maximal inhibitory concentration (IC50) with β-catenin/Tcf-4 (setting [1]) is 782 nM; in the test with β-catenin/Tcf-4 (setting [2]), 805 nM; in the test on SV40-Luc (Homo sapiens, SV5A8, 24 h) it was above 9600 nM.
For the compound `CCOC(=O)N1CCN(c2nc(NCc3ccc(NC(=O)c4ccc(F)cc4)cc3)c3ccc(C)cc3n2)CC1` [Example 218, ethyl 4-[4-({4-[(4-fluorobenzoyl)amino]benzyl}amino)-7-methylquinazolin-2-yl]piperazine-1-carboxylate], the IC50 in the test on β-catenin/Tcf-4 (setting [1]) was 939 nM; in the test with β-catenin/Tcf-4 (setting [2]), 1280 nM; with SV40-Luc (Homo sapiens, SV5A8, 24 h), above 15200 nM.
In the same order, the values of `CCCCN1CCC(C(=O)Nc2ccc(CNc3nc(N(C)C)nc4cc(C)ccc34)cc2)CC1` [Example 249, 1-butyl-N-[4-({[2-(dimethylamino)-7-methylquinazolin-4-yl]amino}methyl)phenyl]piperidine-4-carboxamide] are 1170 nM, 1480 nM and above 10500 nM.
In the same order, the values of `CN(C)c1nc(NCc2ccc(NC(=O)c3ccc(Cl)nc3)cc2)c2cc(I)ccc2n1` [Example 72, 6-chloro-N-[4-({[2-(dimethylamino)-6-iodoquinazolin-4-yl]amino}methyl)phenyl]nicotinamide] are 456 nM, 534 nM and above 4470 nM.
In the same order, the values of `CNc1nc(NCc2ccc(NC(=O)c3ccc(F)c(F)c3)cc2)c2cc(C)ccc2n1` [Example 32, 3,4-difluoro-N-[4-({[6-methyl-2-(methylamino)quinazolin-4-yl]amino}methyl)phenyl]benzamide] are 81 nM, 100 nM and above 577 nM.
As to `Cc1ccc2c(NCc3ccc(NC(=O)c4ccc(F)cc4)cc3)nc(N3CCN(c4ncccn4)CC3)nc2c1` [Example 216, 4-fluoro-N-[4-({[7-methyl-2-(4-pyrimidin-2-ylpiperazin-1-yl)quinazolin-4-yl]amino}methyl)phenyl]benzamide], the IC50 with β-catenin/Tcf-4 (setting [1]) was 315 nM; in the test on β-catenin/Tcf-4 (setting [2]), 464 nM; in the test on SV40-Luc (Homo sapiens, SV5A8, 24 h), above 3220 nM.
In the same order, the values of `CNc1nc(NCc2ccc(NC(=O)C3CCN(Cc4ccccc4)CC3)cc2)c2ccccc2n1` [Example 147, 1-benzyl-N-[4-({[2-(methylamino)quinazolin-4-yl]amino}methyl)phenyl]piperidine-4-carboxamide] are 1250 nM, 1570 nM and above 5200 nM.
In the same order, the values of `Cc1cccc2c(N[C@@H](C)c3ccc(NC(=O)c4ccc(Cl)nc4)cc3)nc(N(C)C)nc12` [Example 273, (S)-6-chloro-N-(4-(1-(2-(dimethylamino)-8-methylquinazolin-4-ylamino)ethyl)phenyl)nicotinamide] are 3950 nM, above 2340 nM and above 9360 nM.
In the same order, the values of `Cc1ccc2c(NCc3ccc(NC(=O)C4CCN(Cc5ccc(F)cc5)CC4)cc3)nc(N(C)C)nc2c1` [Example 251, N-[4-({[2-(dimethylamino)-7-methylquinazolin-4-yl]amino}methyl)phenyl]-1-(4-fluorobenzyl)piperidine-4-carboxamide] are 215 nM, 262 nM and above 8340 nM.
For the compound `O=C(Nc1ccc(CNc2nc(N3CCC3)nc3ccc(C(F)(F)F)cc23)cc1)c1ccc(Cl)cc1` [Example 162, N-[4-({[2-azetidin-1-yl-6-(trifluoromethyl)quinazolin-4-yl]amino}methyl)phenyl]-4-chlorobenzamide], the 50% inhibitory concentration (IC50) with β-catenin/Tcf-4 (setting [1]) was 2230 nM; in the test on β-catenin/Tcf-4 (setting [2]), 3580 nM; in the test with SV40-Luc (Homo sapiens, SV5A8, 24 h), above 9770 nM.
`CC(=O)N1CCCN(c2nc(NCc3ccc(NC(=O)c4ccc(F)cc4)cc3)c3ccc(C)cc3n2)CC1` [Example 223, N-[4-({[2-(4-acetyl-1,4-diazepan-1-yl)-7-methylquinazolin-4-yl]amino}methyl)phenyl]-4-fluorobenzamide]: the IC50 was 2660 nM with β-catenin/Tcf-4 (setting [1]); 4460 nM in the test on β-catenin/Tcf-4 (setting [2]); above 15600 nM in the test on SV40-Luc (Homo sapiens, SV5A8, 24 h).
In the same order, the values of `Cc1ccc2c(NCc3ccc(NC(=O)c4ccc(F)cc4)cc3)nc(N3CCCCC3CCO)nc2c1` (stereo not drawn) [Example 224, 4-fluoro-N-{4-[({2-[2-(2-hydroxyethyl)piperidin-1-yl]-7-methylquinazolin-4-yl}amino)methyl]phenyl}benzamide] are 781 nM, 1000 nM and above 9740 nM.
In the same order, the values of `Cc1ccc2c(NCc3ccc(NC(=O)C4CCN(CC(C)C)CC4)cc3)nc(N(C)C)nc2c1` [Example 244, N-[4-({[2-(dimethylamino)-7-methylquinazolin-4-yl]amino}methyl)phenyl]-1-isobutylpiperidine-4-carboxamide] are 962 nM, 650 nM and above 10500 nM.
`Cc1ccc2c(NCc3ccc(NC(=O)c4ccc(F)cc4)cc3)nc(N(C)Cc3ccccc3)nc2c1` [Example 203, N-{4-[({2-[benzyl(methyl)amino]-7-methylquinazolin-4-yl}amino)methyl]phenyl}-4-fluorobenzamide]: the IC50 is 579 nM in the test with β-catenin/Tcf-4 (setting [1]); 590 nM in the test on β-catenin/Tcf-4 (setting [2]); above 9890 nM with SV40-Luc (Homo sapiens, SV5A8, 24 h).
Consider `CCN1CCN(c2nc(NCc3ccc(NC(=O)c4ccc(F)cc4)cc3)c3cc(C)ccc3n2)CC1` [Example 57, N-[4-({[2-(4-ethylpiperazin-1-yl)-6-methylquinazolin-4-yl]amino}methyl)phenyl]-4-fluorobenzamide], for which the IC50 in the test on β-catenin/Tcf-4 (setting [1]) was 1600 nM; in the test with β-catenin/Tcf-4 (setting [2]) it was 923 nM; in the test with SV40-Luc (Homo sapiens, SV5A8, 24 h), above 10000 nM.
